Tests used:
CDK7 = target: T1, CDK7 (Homo sapiens, UniProt P50613); test: In vitro kinase assay, CDK7; assay type: biochemical; details: ATP 5 µM; from Figure 2E
T1 construct: purchased Millipore 14-476
Method: (§1) The CKIδ, CKIα, CDK7, and ERK2 kinase assays were performed on 384-well plates (10 µl volume). The reaction mixture was as follows: for CKIδ, 2 ng/µl CKIδ (Millipore, 14-520), 50 µM peptide substrate RKKKAEpSVASLTSQCSYSS corresponding to human PER2 Lys659-Ser674 [47], and CKI buffer (40 mM Tris, 10 mM MgCl2, 0.5 mM DTT, 0.1 mg/ml BSA, pH 7.5); for CKIα, 1 ng/µl CKIα (Invitrogen, PV3850), 50 µM CKI peptide substrate (Anaspec, 60547-1), and CKI buffer; for CDK7, 5 ng/µl CDK7 (Millipore, 14-476), 100 µM Cdk7/9 peptide substrate (Millipore, 12-526), and CKI buffer; for ERK2, 1.5 ng/µl ERK2 (Millipore, 14-550), 0.8 µg/µl MBP (Millipore, 13-104), and ERK buffer (50 mM Tris, 10 mM MgCl2, 0.5 mM DTT, 1 mM EGTA, pH 7.5). Five hundred nl of compound was added to the mixture (final 5% DMSO), and the reaction was started by adding ATP (final 5 µM). After incubation at 30°C for 3h, 10 µl of Kinase-Glo Luminescent Kinase Assay reagent (Promega) was added, and the luminescence was detected to determine remaining ATP amount. […] IC50 value was obtained by using Prism software (GraphPad Software).

CKIα [1] = target: T2, CKIα (Homo sapiens, UniProt P48729); test: Cell-based PER1 degradation assay (PER1-LUC), CKIα
T2 sequence (P48729 whole entry, the tested form may be a part): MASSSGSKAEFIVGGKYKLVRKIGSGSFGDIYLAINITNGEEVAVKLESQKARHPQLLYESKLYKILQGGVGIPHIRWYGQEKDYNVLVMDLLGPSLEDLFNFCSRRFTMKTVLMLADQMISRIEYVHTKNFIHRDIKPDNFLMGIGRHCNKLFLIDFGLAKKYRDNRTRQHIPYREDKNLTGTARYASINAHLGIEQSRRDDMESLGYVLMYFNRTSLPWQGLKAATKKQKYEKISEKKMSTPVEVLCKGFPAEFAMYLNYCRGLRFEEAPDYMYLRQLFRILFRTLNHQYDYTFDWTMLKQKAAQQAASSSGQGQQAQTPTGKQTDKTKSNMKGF
Method: HEK293T cells (6.0×10^4 cells) were reverse transfected on 96-well white solid-bottom plates by Lipofectamine 2000 with 40 ng each of expression vectors for C-terminally luciferase-fused PER1 (in p3XFLAG-CMV-14) and N-terminally HA-tagged kinase (in p3XFLAG-CMV-14). For luciferase (in p3XFLAG-CMV-14), 2 ng of expression vector with 38 ng of empty vector was used because of its efficient expression. After 48 h, the medium was supplemented with luciferin (final 1 mM) and HEPES-NaOH (pH 7.2; final 10 mM). After 1 h, cycloheximide (final 20 µg/ml) was added to the medium, and the plate was covered with optically clear film. The luminescence was recorded every 10 min by using the Tecan luminometer. Half-life was obtained by using Prism software (GraphPad Software).

embryonic fibroblasts = test: Circadian period in embryonic fibroblasts from CKIδ deficient mPer2Luc knockin mice; assay type: cell-based, mouse
Method: Luminescence rhythms of adult tail fibroblasts and embryonic fibroblasts from mPer2^Luc knockin mice were analyzed similarly to U2OS cells, except that 1,800 cells were plated per well. Because of the low luminescence intensity of the fibroblasts, the higher sensitivity ViewLux imager was used for rhythm recording.

CKIδ [2] = target: T3, CKIδ (Homo sapiens, UniProt P48730); test: PER2-LUC degradation assay, CKIδ; assay type: cell-based; details: HEK293T, 0 to 20 µM, 24 h
T3 sequence (P48730 whole entry, species assumed): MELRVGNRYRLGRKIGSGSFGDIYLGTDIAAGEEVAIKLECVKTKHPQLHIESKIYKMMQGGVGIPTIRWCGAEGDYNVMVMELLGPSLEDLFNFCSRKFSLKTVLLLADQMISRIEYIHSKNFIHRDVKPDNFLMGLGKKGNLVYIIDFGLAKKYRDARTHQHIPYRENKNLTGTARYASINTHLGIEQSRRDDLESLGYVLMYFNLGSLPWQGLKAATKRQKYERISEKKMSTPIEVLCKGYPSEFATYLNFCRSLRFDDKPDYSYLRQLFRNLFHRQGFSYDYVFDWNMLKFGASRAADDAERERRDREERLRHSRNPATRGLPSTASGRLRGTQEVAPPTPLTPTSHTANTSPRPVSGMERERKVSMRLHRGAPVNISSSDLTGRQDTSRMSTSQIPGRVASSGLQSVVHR

[3] = tested on: protein kinases (CKIδ, CKIα, ERK2, CDK7, p38α; ERK1); test: Affinity chromatography with compound 3 resin and U2OS cell lysate; assay type: binding, human
Method: U2OS cells kept in confluence (2×10^8 cells) were collected with ice-cold PBS and homogenized by using Dounce homogenizer in 5 ml of lysis buffer (25 mM MOPS, 15 mM EGTA, 15 mM MgCl2, 1 mM DTT, 60 mM β-glycerophosphate, 15 mM p-nitrophenyl phosphate, 1 mM Na3VO4, 1 mM NaF, 1 mM phenyl phosphate, 10 µg/ml leupeptin, 10 µg/ml aprotinin, 10 µg/ml soybean trypsin inhibitor, 100 µM benzamidine, pH7.2). The homogenate was sonicated and centrifuged (16,000×g) at 4°C for 20 min. The resulting supernatant was split into two, and each portion was incubated with or without 100 µM longdaysin (final 0.1% DMSO) at 4°C for 10 min (Figure 2C). Then, 120 µl of compound 3 [50% slurry in bead buffer (50 mM Tris, 250 mM NaCl, 5 mM EDTA, 5 mM EGTA, 0.1% NP-40, 5 mM NaF, 10 µg/ml leupeptin, 10 µg/ml aprotinin, 10 µg/ml soybean trypsin inhibitor, 100 µM benzamidine, pH 7.4)] was added to the mixture and incubated at 4°C for 1 h with rotation. […]
All gel bands were subjected to LC-MS/MS analysis as described previously. Tandem MS data were analyzed using Sequest (ThermoFinnigan, San Jose, CA; Version 3.0). […]
Scaffold (version Scaffold_2_05_00, Proteome Software Inc., Portland, OR) was used to validate MS/MS based peptide and protein identifications. […] Crude differential quantitation of proteins identified in both pulldown experiments was performed by comparing the number of assigned peptides.

CKIδ [4] = target: T3, CKIδ; test: In vitro kinase assay, CKIδ; assay type: biochemical; set-up: purchased Millipore 14-520; details: ATP 5 µM; from Figure 2E
Method: as §1

CKIα [5] = target: T2, CKIα; test: In vitro kinase assay, CKIα; assay type: biochemical; set-up: purchased Invitrogen PV3850; details: ATP 5 µM; from Figure 2E
Method: as §1

T1 sequence (P50613 whole entry): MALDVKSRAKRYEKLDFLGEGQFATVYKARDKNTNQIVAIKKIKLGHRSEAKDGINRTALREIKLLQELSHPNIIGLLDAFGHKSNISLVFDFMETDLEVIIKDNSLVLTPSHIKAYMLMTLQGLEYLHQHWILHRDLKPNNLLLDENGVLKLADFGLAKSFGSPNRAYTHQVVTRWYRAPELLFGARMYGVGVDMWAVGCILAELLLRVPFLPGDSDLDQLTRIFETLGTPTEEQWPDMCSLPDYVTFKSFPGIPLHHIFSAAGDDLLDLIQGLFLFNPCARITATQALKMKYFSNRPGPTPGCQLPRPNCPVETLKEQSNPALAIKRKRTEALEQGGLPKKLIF
T1 sequence (P51946 whole entry partner): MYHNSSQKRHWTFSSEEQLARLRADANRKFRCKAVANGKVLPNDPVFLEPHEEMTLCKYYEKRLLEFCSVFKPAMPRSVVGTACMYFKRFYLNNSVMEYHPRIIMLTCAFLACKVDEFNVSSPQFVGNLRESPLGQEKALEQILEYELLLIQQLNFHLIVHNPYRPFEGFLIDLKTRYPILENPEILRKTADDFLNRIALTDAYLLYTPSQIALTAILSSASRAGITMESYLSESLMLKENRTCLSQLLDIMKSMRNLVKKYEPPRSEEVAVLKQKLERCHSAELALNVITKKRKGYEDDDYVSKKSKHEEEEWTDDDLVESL
T1 sequence (P51948 whole entry partner): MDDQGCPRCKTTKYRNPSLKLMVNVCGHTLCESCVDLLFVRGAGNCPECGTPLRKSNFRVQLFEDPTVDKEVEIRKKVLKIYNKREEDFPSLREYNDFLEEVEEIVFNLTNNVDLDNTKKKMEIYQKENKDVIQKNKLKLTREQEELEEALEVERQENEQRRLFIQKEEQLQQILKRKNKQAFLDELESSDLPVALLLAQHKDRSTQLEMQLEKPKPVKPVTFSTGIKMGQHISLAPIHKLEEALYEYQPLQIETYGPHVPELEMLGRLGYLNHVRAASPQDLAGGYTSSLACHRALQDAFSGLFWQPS

`CC(C)n1cnc2c(NCc3cccc(C(F)(F)F)c3)ncnc21` [Longdaysin, 9-isopropyl-N-(3-(trifluoromethyl)benzyl)-9H-purin-6-amine] was tested, and the IC50 (CDK7) was 29 µM, the EC50 (CKIα [1]; HEK293T cells, 24 h treatment, from Figure 4E) was 9.2 µM and the “Effect on CKIα-dependent degradation of PER1” value (CKIα [1]; HEK293T, 0 to 20 µM, 24 h) was “inhibited by longdaysin treatment in a dose-dependent manner”. For the same compound, the “Effect on circadian period” value (embryonic fibroblasts; CKIδ deficient (CKIδΔ2/Δ2) cells) was “lengthened the period in a dose-dependent manner”, the “Effect on circadian period” value (embryonic fibroblasts; wild type (CKIδ+/+) cells) was “lengthened the period in a dose-dependent manner” and the “Effect on CKIδ-mediated PER2-LUC degradation” value (CKIδ [2]) was “inhibited the CKIδ-mediated PER2-LUC degradation in a dose-dependent manner”. The “Binding of protein kinases to the affinity resin on competition” value ([3]; 100 µM free longdaysin as soluble competitor) was “decreased binding in the presence of free longdaysin”, the “Signal reduction of listed binding proteins upon competition” value ([3]; 100 µM free longdaysin, tandem MS spectra) was at least 3 fold and the IC50 (CKIδ [4]) was 8.8 µM. For the same compound, the IC50 (CKIα [5]) was 5.6 µM.
